This is an account of results in patent publication US10975084B2, “KDM5 inhibitors” (Merck Sharp & Dohme Corp., priority 2016, dated 2021).

The structures appear in SMILES notation.

The experiment concerns the target KDM5B (Homo sapiens (Human), UniProt Q9UGL1). Put plainly: KDM5B TR-FRET Enzyme Activity Assay. It is filed as biochemical. The conditions noted are these: LANCE TR-FRET; 5 nM full-length recombinant KDM5B; ten point titration 100000 nM to 5.08 nM. On the procedure:
KDM5B TR-FRET Enzyme Activity Assay
KDM5B enzymatic activity was determined with the LANCE (Lanthanide Chelate Excite) TR-FRET (Time-resolved fluorescence resonance energy transfer) assay. […] To each well of a white Greiner 1536 Lumitrac 1536 well-plate, 50 nL of compound (100 fold dilution in final assay volume of 5 μL) was dispensed, followed by the addition of 4 μL of 1× assay buffer (50 mM Hepes 7.3, 0.5 mM TCEP, 0.005% Brij-35, 0.02% BSA, 50 μM Na-L-Ascorbate and 2 μM AmFe(II)Sulfate) containing 5 nM of Full-length KDM5B enzyme (recombinant protein from baculovirus-transfected Sf21 cells: full-length KDM5B; MW=176.825 kDa). Following a 30 minutes compound and enzyme incubation in a humidified chamber, each reaction was initiated by the addition of 1 μL 1× assay buffer containing […] biotinylated H3K4Me3 peptide, and 500 nM α-ketoglutarate. The final reaction in each well of 5 μL consists of 5 nM KDM5B, 500 nM biotinylated-peptide, and 500 nM α-ketoglutarate. De-methylation reactions were allowed to proceed for 60 minutes. Reactions were immediately quenched by the addition of 5 uL of 2× Lance Detection Buffer (PerkinElmer) with 0.5 mM EDTA and 2 nM of Eu-anti-H3K4Me1-2 antibody, and 30 nM of Streptavidin-conjugated Dylight 650 detection reagents. After 60 minutes incubation with detection reagents, reaction plates were read on a PerkinElmer EnVision plate reader using standard TR-FRET protocol. Briefly, excitation of donor molecules (Eu-chelate-anti-H3K4Me1-2-antibody) with a laser light source at 337 nm produces energy that can be transferred to Dylight-650 acceptor molecules if this donor:acceptor pair is within close proximity. Fluorescence intensity at both 665 nm (acceptor) and 615 nm (donor) are measured and a TR-FRET ratio calculated for each well (acceptor intensity/donor intensity). IC50 values were determined by 4 parameter robust fit of TR-FRET ratio values vs. (Log 10) compound concentrations.
(Time-resolved FRET reads energy transfer from a long-lived donor to a nearby acceptor.)

What is called IC50 is the point on the concentration scale where inhibition reaches its midpoint.

Sequence of KDM5B (Q9UGL1 whole entry): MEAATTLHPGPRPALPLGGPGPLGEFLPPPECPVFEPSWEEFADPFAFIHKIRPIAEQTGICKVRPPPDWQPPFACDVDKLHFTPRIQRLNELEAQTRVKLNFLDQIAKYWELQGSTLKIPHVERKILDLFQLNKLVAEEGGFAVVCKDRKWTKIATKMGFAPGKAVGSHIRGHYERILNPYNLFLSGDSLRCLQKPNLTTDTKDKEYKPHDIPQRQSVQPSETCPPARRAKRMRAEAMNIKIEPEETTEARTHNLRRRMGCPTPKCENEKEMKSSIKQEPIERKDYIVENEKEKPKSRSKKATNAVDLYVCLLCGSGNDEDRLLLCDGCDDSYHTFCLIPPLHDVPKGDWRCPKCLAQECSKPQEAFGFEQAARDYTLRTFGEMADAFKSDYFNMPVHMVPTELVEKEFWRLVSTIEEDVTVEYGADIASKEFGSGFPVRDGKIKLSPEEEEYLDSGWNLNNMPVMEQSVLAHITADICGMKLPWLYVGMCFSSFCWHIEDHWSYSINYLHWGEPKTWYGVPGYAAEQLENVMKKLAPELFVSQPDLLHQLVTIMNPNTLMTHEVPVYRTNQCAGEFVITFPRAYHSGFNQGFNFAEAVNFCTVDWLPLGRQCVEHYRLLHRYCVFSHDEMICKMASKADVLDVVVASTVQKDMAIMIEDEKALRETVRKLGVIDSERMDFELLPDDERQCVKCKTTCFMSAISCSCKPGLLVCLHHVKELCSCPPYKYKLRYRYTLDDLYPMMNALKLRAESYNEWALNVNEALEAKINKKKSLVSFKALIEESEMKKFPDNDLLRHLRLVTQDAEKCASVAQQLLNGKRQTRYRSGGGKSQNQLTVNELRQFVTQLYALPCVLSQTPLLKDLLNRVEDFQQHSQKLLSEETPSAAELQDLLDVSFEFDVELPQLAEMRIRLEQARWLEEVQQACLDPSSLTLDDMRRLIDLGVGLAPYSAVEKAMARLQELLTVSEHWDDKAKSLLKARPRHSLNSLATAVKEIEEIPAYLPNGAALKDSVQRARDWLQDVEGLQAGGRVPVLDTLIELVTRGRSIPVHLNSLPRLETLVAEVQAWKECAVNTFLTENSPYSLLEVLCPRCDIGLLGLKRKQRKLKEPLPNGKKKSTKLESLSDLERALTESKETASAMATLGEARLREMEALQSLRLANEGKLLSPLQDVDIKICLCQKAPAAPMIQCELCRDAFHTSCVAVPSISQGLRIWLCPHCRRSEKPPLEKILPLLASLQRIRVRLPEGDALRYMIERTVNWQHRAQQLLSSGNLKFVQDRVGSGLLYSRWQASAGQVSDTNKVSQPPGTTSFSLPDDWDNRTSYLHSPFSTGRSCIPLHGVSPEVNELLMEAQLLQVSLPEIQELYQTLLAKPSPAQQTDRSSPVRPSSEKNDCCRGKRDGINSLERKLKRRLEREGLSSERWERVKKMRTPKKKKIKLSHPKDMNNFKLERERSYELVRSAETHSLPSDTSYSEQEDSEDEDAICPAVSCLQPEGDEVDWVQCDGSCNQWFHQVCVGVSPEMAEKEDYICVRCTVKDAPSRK

In the case of `CC(C)c1c(-c2cnn(Cc3ccccc3)c2)[nH]c2ncnn2c1=O` [Example 11-9, 5-(1-benzyl-1H-pyrazol-4-yl)-6-(1-methylethyl)[1,2,4]triazolo[1,5-a]pyrimidin-7(4H)-one], the concentration for half-maximal inhibition (IC50) was determined as 7.3 nM.

With `CC(C)c1c(-c2ccc(N3CCOCC3)cc2)[nH]c2ncnn2c1=O` [Example 11-10, 6-(1-methylethyl)-5-(4-morpholin-4-ylphenyl)[1,2,4]triazolo[1,5-a]pyrimidin-7(4H)-one], the IC50 came out at 7.52 nM.

Regarding `CC(C)c1c(-c2ccc(F)cc2)[nH]c2ncnn2c1=O` [Example 11-11, 5-(4-fluorophenyl)-6-(1-methylethyl)[1,2,4]triazolo[1,5-a]pyrimidin-7(4H)-one], the IC50 is 160 nM.

As to `CC(C)Cn1cc(-c2[nH]c3ncnn3c(=O)c2C(C)C)cn1` [Example 11-12, 6-(1-methylethyl)-5-[1-(2-methylpropyl)-1H-pyrazol-4-yl][1,2,4]triazolo[1,5-a]pyrimidin-7(4H)-one], the IC50 is 5.08 nM.

In the case of `CC(C)c1c(-c2cnn(CC3(F)CCCC3)c2)[nH]c2ncnn2c1=O` [Example 11-13, 5-{1-[(1-fluorocyclopentyl)methyl]-1H-pyrazol-4-yl}-6-(1-methylethyl)[1,2,4]triazolo[1,5-a]pyrimidin-7(4H)-one], the IC50 stood at 5.08 nM.

Take `CC(C)c1c(-c2cnn(CC3CC3)c2)[nH]c2ncnn2c1=O` [Example 11-14, 5-[1-(cyclopropylmethyl)-1H-pyrazol-4-yl]-6-(1-methylethyl)[1,2,4]triazolo[1,5-a]pyrimidin-7(4H)-one]: the 50% inhibitory concentration (IC50) is 5.08 nM.

As for `CC(C)c1c(-c2cnn(Cc3ccncc3)c2)[nH]c2ncnn2c1=O` [Example 11-15, 6-(1-methylethyl)-5-[1-(pyridin-4-ylmethyl)-1H-pyrazol-4-yl][1,2,4]triazolo[1,5-a]pyrimidin-7(4H)-one], the IC50 was found to be 7.5 nM.

With `COCCn1cc(-c2[nH]c3ncnn3c(=O)c2C(C)C)cn1` [Example 11-16, 5-[1-(2-methoxyethyl)-1H-pyrazol-4-yl]-6-(1-methylethyl)[1,2,4]triazolo[1,5-a]pyrimidin-7(4H)-one], the 50% inhibitory concentration (IC50) amounted to 5.73 nM.

For the compound `CC(C)c1c(-c2cnn(-c3ccc(F)cc3)c2)[nH]c2ncnn2c1=O` [Example 11-17, 5-[1-(4-fluorophenyl)-1H-pyrazol-4-yl]-6-(1-methylethyl)[1,2,4]triazolo[1,5-a]pyrimidin-7(4H)-one], the IC50 worked out at 6.47 nM.

`CC(C)c1c(-c2cnn(C3CC3)c2)[nH]c2ncnn2c1=O` [Example 11-18, 5-(1-cyclopropyl-1H-pyrazol-4-yl)-6-(1-methylethyl)[1,2,4]triazolo[1,5-a]pyrimidin-7(4H)-one]: the concentration for half-maximal inhibition (IC50) was 5.74 nM.

In the case of `CCn1cc(-c2[nH]c3ncnn3c(=O)c2C(C)C)cn1` [Example 11-19, 5-(1-ethyl-1H-pyrazol-4-yl)-6-(1-methylethyl)[1,2,4]triazolo[1,5-a]pyrimidin-7(4H)-one], the concentration for half-maximal inhibition (IC50) amounted to 6.27 nM.

For the compound `CC(C)c1c(-c2cnn(C(C)C)c2)[nH]c2ncnn2c1=O` [Example 11-20, 6-(1-methylethyl)-5-[1-(1-methylethyl)-1H-pyrazol-4-yl][1,2,4]triazolo[1,5-a]pyrimidin-7(4H)-one], the IC50 was found to be 5.08 nM.

On to `CCCn1cc(-c2[nH]c3ncnn3c(=O)c2C(C)C)cn1` [Example 11-21, 6-(1-methylethyl)-5-(1-propyl-1H-pyrazol-4-yl)[1,2,4]triazolo[1,5-a]pyrimidin-7(4H)-one], for which the IC50 was 5.08 nM.

In the case of `C=C(CCC)c1[nH]c2ncnn2c(=O)c1C(C)C` [Example 11-22, 6-(1-methylethyl)-5-(1-methylidene-butyl)[1,2,4]triazolo[1,5-a]pyrimidin-7(4H)-one], the IC50 stood at 808 nM.

As to `COC/C=C/c1[nH]c2ncnn2c(=O)c1C(C)C` [Example 11-23, 5-[(1E)-3-methoxyprop-1-en-1-yl]-6-(1-methylethyl)[1,2,4]triazolo[1,5-a]pyrimidin-7(4H)-one], the concentration for half-maximal inhibition (IC50) came to 27.7 nM.
